These results are taken from patent US7985536B2, “Method for regulating NO production in an isolated organ or tissue during warm perfusion” (priority 1999, dated 2011).

The subject of data set [1] is canine kidneys. Put plainly: CoPP in the perfusate during EMS perfusion: kidney metabolism and function. How it is done:
(§1) Test group (n=3) canine kidneys were excised, cannulated, flushed of blood with EMS perfusion solution and placed on EMS perfusion at 32° C.-34° C. for 6 hours with either 5, 25 or 50 uM cobalt protoporphyrin (CoPP) added to the perfusate. Metabolic and functional evaluations consisted of quantification of the ex vivo kidney function during the period of HO-1 induction. Using the EMS technology, kidneys were maintained in a metabolically active state by perfusion at near physiologic temperature. Kidneys weighing approximately 70-90 gm were procured following brain death with concomitant warm ischemia of no more than 15 minutes. The kidneys were then transitioned to EMS perfusion at 32° C. to 34° C. The kidneys were evaluated for oxidative metabolism, vascular dynamics and organ function. The organ parameters were allowed to stabilize for one hour prior to the evaluation of function. Samples from the arterial and venous lines were collected, along with the urine produced during the perfusions. PO2 measurements for the arterial and venous samples were made with a Radiometer ABL5.
Oxygen consumption was calculated as: ml/min/gm=(PO2 artery−PO2 venous)×(flow rate).
The vascular resistance was calculated as: vasc resis=mean arterial pressure/mean flow rate
Creatinine was added to the perfusate as a tracer. The urine made during the EMS perfusions at 32° C. to 34° C. was collected and tested. The concentration of creatinine was measured on an IDEXX Vet Lab chemistry analyzer and the glomerular filtration rate (GFR) was calculated as: […]

Data set [2] concerns canine kidneys. The data set is described as above. Conditions: for F.R. (vascular flow rate) / GFR (glomerular filtration rate) / MAP (mean arterial pressure) / Urinary Protein / Urine Flow / Vasc Res (vascular resistance) / 02 Cons (oxygen consumption): n = 2, mean.
A further data set has as its system hemeoxygenase-1 (HO-1). Put plainly: Up-regulation of hemeoxygenase-1 by CoPP during EMS perfusion. Also on record: species or system canine. The note with it: individual kidneys. As to the method: EMS perfusion can be used to deliver a drug to an organ, section of anatomy or tissue in a targeted fashion. In addition, during any procedure the EMS supported ongoing metabolism and function can be monitored providing a mechanism to quantify the impact of the drug and any corresponding cellular response to it. For example, a compound known to cause the up-regulation of the heat-shock protein, hemeoxygenase-1 was administered to an isolated kidney being perfused in accordance with the technology of the present invention. The EMS technology provided adequate support of renal metabolism and function during ex vivo perfusion to increase expression of the hemeoxygenase-1 (HO-1) enzyme within six hours.
as §1, with “Metabolic” for “Test group (n=3) canine kidneys were excised, cannulated, flushed of blood with EMS perfusion solution and placed on EMS perfusion at 32° C.-34° C. for 6 hours with either 5, 25 or 50 uM cobalt protoporphyrin (CoPP) added to the perfusate. Metabolic”

Another data set deals with isolated canine kidneys. Put plainly: Nitric oxide flux in isolated canine kidneys, 48 hour perfusion. Conditions: for mean NO3 accumulation in the perfusion solution: following 48 hours, ion chromatograph, mean±standard deviation; for net weight gain (edema): isolated canine kidneys, L-NAME and L-NIL 100 μM added to the perfusion solution. As to the method: Kidneys were perfused with the perfusion solution and process described above for 48 hours.
The concentration of nitrate in the solution was determined by analysis on a Dionex DX-500 ion chromatograph using an AS-15 column and KOH eluant that varied in concentration by a programmed gradient. Alternatively, an electrode can be utilized to monitor NO flux in stream. All samples were analyzed in duplicate and were diluted by a factor of 11 and the values expressed as the mean±standard deviation for the kidneys perfused with the solution of the invention or control kidneys perfused with RPMI medium.

The test system of data set [3] is kidneys. The data set is described as follows: In situ kidney perfusion during operative procedure, serum creatinine 24 hours posttreatment. In kind it is in vivo. Conditions: six hours in situ acellular perfusion, n = 2, L-NAME 100 uM. The text has this:
The ability to control NOS function during in situ perfusion was observed by placement of cannulas in the aorta above the renal arteries and in the vena cava below the renal veins. In this manner, the renal vasculature could be isolated from vascular blood flow during surgical procedures repairing aortic aneurysm. The kidneys were perfused with the solution of the present invention by opening the perfusion circuit until the blood was flushed from the kidneys. The circuit was then closed and the kidneys perfused acellularly until the end of the surgical procedure and reflow of blood was restored. The cannulas were removed, the incision in the aorta and vena cava closed and blood flow reinstated. During six hours of acellular perfusion the concentration of NO3-was determined every 2 hours and the concentration of L-arginine was adjusted to control the NO flux around the set range using the method described above. Following reperfusion with vascular blood flow, the renal function was evaluated 24 hours posttreatment by determining the serum creatinine (SCR) concentration. Controls consisted of kidneys perfused without L-arginine and kidneys perfused with the addition of L-NAME (100 uM).

The subject of data set [4] is canine kidneys. The data set is described as follows: Regulation of NO flux by titrating L-arginine (nitrite, electrochemical detection). How it is done: It is desirable to control the flux of NO in tissues, limbs and organs while they are deprived of physiologic blood flow. In certain clinical situations such as the case of septic shock it may be necessary to inhibit the production of NO. Therefore, the ability to regulate the production of NO was evaluated using the solution and process of the present invention. The production of NO was monitored using electrochemical detection using a carbon-modified anode in stream. Oxidation of NO transfers electrons from NO to the anode generating nitrosonium cation that is converted to nitrite as follows: NO→NO+→HONO→NO2^− Canine kidneys were perfused with the solution of the invention without L-arginine. The substrate L-arginine was added to the perfusion path separately to measure the ability to control NO production.
Controls consisted of kidneys perfused with L-Name to inhibit NOS function and kidneys perfused with the solution and process of the present invention but without L-arginine.

Another data set deals with iNOS. The note with it: cited from earlier work.
Data set [5] deals with kidneys. Put plainly: Control of NO3 production around a target during 48 hours perfusion. As to the method: Kidneys were perfused for 48 hours and during the perfusion the kidneys were monitored every 4 hours for the concentration of NO3^− in the circulation. Alternatively, NO concentration can be evaluated by measuring NO directly using an electrode or by measurement of the decrease in concentration of the substrate such as L-arginine. […] The perfusate was exchanged at the rate of 20% v/v every 4 hours with the concentration of L-arginine varying to control the production of NO.

For data set [6], the system named is canine kidneys. Put plainly: Nitrate accumulation and acetylcholine vasodilation after 30 minutes warm ischemia and 18 hours perfusion. Conditions: One mg of acetylcholine.
In data set [7] the test system is canine kidneys. The data set is described as follows: Endothelial-dependent vasodilation by acetylcholine in perfused canine kidneys. The note with it: acetylcholine 1.0 mg; kidneys perfused with the solution of the invention. How it is done:
Canine kidneys were tested for the ability to produce NO by induction with acetylcholine at a concentration of 1.0, 10.0 or 100 mg. The acetylcholine was administered to the perfusion path of kidneys using the solution and process of this invention and also in control kidneys that were perfused with RPMI medium alone.

Another data set has as its system human kidneys. The data set is described as follows: Vasodilation in human kidneys perfused ex vivo, 12 hours. As to the method:
Human kidneys were perfused ex vivo in order to evaluate the continued function of NOS in the formation of a continual flux of NO. • Group 1—Kidneys perfused with the solution and process of the invention, n=2 • Group 2—Kidneys perfused with heparinized blood with the pharmacologic agent, nitroprusside added at doses of 1.0, 10.0 and 100.0 mg, n=2
The ability to vasodilate and sustain stable perfusion pressures was determined in both groups during 12 hours of ex vivo perfusion.

Values joined by “and” are separate entries in the source; they are usually repeats but may differ in a detail not shown here. Equal entries are not always repeated.

As to `C=CC1=C(C)c2cc3[n-]c(cc4nc(cc5[n-]c(cc1n2)c(C)c5CCC(=O)[O-])C(CCC(=O)[O-])=C4C)c(C)c3C=C.[Co+2].[H+].[H+]` [CoPP, cobalt protoporphyrin], the “inhibition of the GFR” value with canine kidneys [1] (CoPP 50 μM) is recorded as 91%. The “reduction of urine flow” value in the data set on canine kidneys [1] (CoPP increased from 5 to 25 μM) is recorded as 66%; in the data set with canine kidneys [1] (CoPP increased to 50 μM) it was more than 90%. The “F.R. (vascular flow rate)” value with canine kidneys [2] (5 uM CoPP) came to 114 cc/min; in the data set on canine kidneys [2] (25 uM CoPP) it was 114 cc/min; in the data set on canine kidneys [2] (50 uM CoPP), 108 cc/min. The results for the “GFR (glomerular filtration rate)” value with canine kidneys [2] (5 uM CoPP), in the data set with canine kidneys [2] (25 uM CoPP) and in the data set on canine kidneys [2] (50 uM CoPP) were 7.02 mL/min, 2.05 mL/min and 0.6 mL/min, respectively. In addition, the “MAP (mean arterial pressure)” value is given as 47 mmHg with canine kidneys [2] (5 uM CoPP), 47 mmHg with canine kidneys [2] (25 uM CoPP) and 48 mmHg with canine kidneys [2] (50 uM CoPP). Moreover, the “Urinary Protein” value in the data set with canine kidneys [2] (5 uM CoPP) is reported as 0.16 gm/dL; in the data set on canine kidneys [2] (25 uM CoPP) it was 3.62 gm/dL; in the data set on canine kidneys [2] (50 uM CoPP) it was 3.44 gm/dL. The “Urine Flow” value with canine kidneys [2] (5 uM CoPP) is 6 cc/hr; in the data set on canine kidneys [2] (25 uM CoPP) it was 2 cc/hr; with canine kidneys [2] (50 uM CoPP), 0.5 cc/hr. Moreover, the “Vasc Res (vascular resistance)” value with canine kidneys [2] (5 uM CoPP) came out at 0.41; with canine kidneys [2] (25 uM CoPP) it was 0.41; in the data set with canine kidneys [2] (50 uM CoPP) it was 0.44. In addition, the “02 Cons (oxygen consumption)” value came out at 0.18 cc/min/gm with canine kidneys [2] (5 uM CoPP, 6 hours EMS perfusion); 0.23 cc/min/gm in the data set with canine kidneys [2] (25 uM CoPP); 0.17 cc/min/gm in the data set on canine kidneys [2] (50 uM CoPP). The “reduction of GFR” value in the data set with canine kidneys [2] (CoPP increased from 5 to 25 μM) is 71%. For the same compound, the “Hemeoxygenase-1, CoPP induction during EMS perfusion” value in the data set on hemeoxygenase-1 (HO-1) (5 μM CoPP) was 9.6 IU and 13.2 IU; with hemeoxygenase-1 (HO-1) (10 μM CoPP) it was 16.3 IU and 13.4 IU; with hemeoxygenase-1 (HO-1) (25 μM CoPP) it was 16.1 IU and 16.7 IU; with hemeoxygenase-1 (HO-1) (50 μM CoPP), 15.2 IU and 14.7 IU.
On to `COC(=O)[C@@H](N)CCCNC(=N)N[N+](=O)[O-]` [L-NAME, N^6-nitro-L-arginine methyl ester], for which, in the data set on isolated canine kidneys, the “mean NO3 accumulation in the perfusion solution” value (shortened to “mean NO3 accumulation”) stood at 0.16 ± 0.1 mg/L and the “net weight gain (edema)” value worked out at 350%. In the data set on kidneys [3], this compound gave an SCr of 4.2 mg/dL. Also, the NO2 in the data set with canine kidneys [4] (Control, kidneys perfused with L-Name) was 0.17 ± 0.3 mg/dL.
For the compound `CC(=N)NCCCC[C@H](N)C(=O)O.Cl` [L-NIL], in the data set on isolated canine kidneys, the “mean NO3 accumulation” value was 0.51 ± 0.2 mg/L and the “net weight gain (edema)” value stood at 206%. Also, in the data set with iNOS, the “selectivity for iNOS in comparison to the constitutive endothelial NOS isoform” value is listed as “approximately 28 fold”.
Turning to `N=C(N)NCCC[C@H](N)C(=O)O` [L-arginine], the NO3 with kidneys [5] (perfusion time 4 hours, target 200 ug/L/hr+/−10) was found to be 203 µg/L/h; in the data set on kidneys [5] (perfusion time 8 hours) it was 180 µg/L/h; in the data set on kidneys [5] (perfusion time 12 hours), 205 µg/L/h; in the data set with kidneys [5] (perfusion time 16 hours) it was 195 µg/L/h; in the data set on kidneys [5] (perfusion time 20 hours) it was 201 µg/L/h; with kidneys [5] (perfusion time 24 hours) it was 210 µg/L/h. For the same compound, the NO3 in the data set on kidneys [5] (perfusion time 28 hours) amounted to 195 µg/L/h; in the data set on kidneys [5] (perfusion time 32 hours) it was 202 µg/L/h; in the data set with kidneys [5] (perfusion time 36 hours) it was 210 µg/L/h; in the data set on kidneys [5] (perfusion time 40 hours), 190 µg/L/h; with kidneys [5] (perfusion time 44 hours) it was 203 µg/L/h; in the data set with kidneys [5] (perfusion time 48 hours) it was 209 µg/L/h. Further, the NO2 with canine kidneys [4] (L-arginine 18 mg, n = 3) stood at 1.2 ± 0.1 mg/dL; with canine kidneys [4] (L-arginine 35 mg, n = 3), 3.1 ± 0.1 mg/dL; in the data set with canine kidneys [4] (L-arginine 70 mg, n = 3), 5.8 ± 0.3 mg/dL; with canine kidneys [4] (L-arginine 140 mg, n = 3), 11.2 ± 0.5 mg/dL.
For `CC(=O)OCC[N+](C)(C)C` [acetylcholine], the “time to decrease in mean arterial pressure” value with canine kidneys [6] (Group 1) is not above 5 min. Moreover, the “decrease in mean arterial pressure” value in the data set with canine kidneys [6] (Group 1, perfusion with the solution of the invention) stood at 10 mmHg. Moreover, in the data set with canine kidneys [7], the “mean drop in systolic pressures” value came out at 20 mmHg and the “time to vasodilation after administration” value is not above 5 min. In addition, in the data set on human kidneys (acetylcholine 1.0 mg, Group 1), the decreased perfusion pressure was determined as 8 mmHg and the “vascular flow rate after vasodilation” value is given as more than 150 cc/min.
On to `C[C@@H]1C[C@H]2[C@@H]3CCC4=CC(=O)C=C[C@]4(C)[C@@]3(F)[C@@H](O)C[C@]2(C)[C@@]1(O)C(=O)CO` [dexamethasone], for which the “mean NO3 accumulation” value in the data set on isolated canine kidneys amounted to 0.18 ± 0.1 mg/L.
Turning to nitroprusside, the “decrease in the mean arterial pressures” value with human kidneys (nitroprusside 1.0 mg, heparinized blood perfusion) is recorded as “did not lead to an appreciable decrease”; in the data set with human kidneys (nitroprusside 10.0 mg, heparinized blood perfusion), 6 mmHg; in the data set with human kidneys (nitroprusside 100 mg, excessive vascular flow associated with renal damage) it was “profound decrease”.
